In patent publication EP4417602A1, “SUBSTITUTED PYRAZOLE CARBOXAMIDES, SALTS THEREOF AND THEIR USE AS HERBICIDALLY ACTIVE SUBSTANCES” (Bayer AG, priority 2023, dated 2024):

Legend:
MATIN [1] = experiment: B. Herbicidal post-emergence action on harmful plants (Tables B); assay type: in vivo, Matricaria inodora; details: application rate 1280 g/ha; Table B4a
Outline: (§1)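 Greenhouse weeds grown in sandy loam were sprayed post-emergence at the one-leaf stage, 2-3 weeks after sowing. Compounds were applied as WP or EC in water with 0.5% additive at 600 L/ha, at 1280 g/ha or below. Visual damage was rated after about 3 weeks versus untreated plants (0-100%).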

POAAN [2] = experiment: as above; assay type: in vivo, Poa annua
Outline: as §1

MATIN [3] = experiment: A. Herbicidal pre-emergence action on harmful plants (Tables A); assay type: in vivo, Matricaria inodora; details: visual grading after ca. 3 weeks vs untreated controls, 100% = plants have died off, 0% = as control plants
Outline: (§2)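 Values are visual percent damage relative to untreated controls, scored ca. 3 weeks after the compound was sprayed on the covering soil of sown pots (sandy loam) at rates up to 1280 g/ha, formulated as WP or EC with 0.5% additive.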

AMARE [4] = experiment: B. Herbicidal post-emergence action on harmful plants (Tables B); assay type: in vivo, Amaranthus retroflexus; details: application rate 1280 g/ha; Table B8
Protocol: (§3) Seeds of mono- and dicotyledonous weed plants were placed in plastic pots in sandy loam soil (doubly sown with in each case one species of mono- or dicotyledonous weed plants per pot), covered with soil and cultivated in a greenhouse under controlled growth conditions. 2 to 3 weeks after sowing, the test plants were treated at the one-leaf stage. The compounds of the invention, formulated in the form of wettable powders (WP) or as emulsion concentrates (EC), were applied onto the green parts of the plants as aqueous suspension or emulsion with addition of 0.5% additive at a water application rate of 600 liters per hectare (converted). After the test plants had been kept in the greenhouse under optimum growth conditions for about 3 weeks, the activity of the preparations was rated visually in comparison to untreated controls. For example, 100% activity = the plants have died, 0% activity = like control plants. Tables B1 to B12, below, show the effects of selected compounds of the general formula (I) according to table 1 on various harmful plants and an application rate corresponding to 1280 g/ha or below obtained by the experimental procedure mentioned above. Table B1a: post-emergence activity at 1280g/ha against ABUTH in %

LOLRI [5] = experiment: A. Herbicidal pre-emergence action on harmful plants (Tables A); assay type: in vivo, Lolium rigidum; details: visual grading after ca. 3 weeks vs untreated controls, 100% = plants have died off, 0% = as control plants
Outline: as §2

DIGSA [6] = experiment: B. Herbicidal post-emergence action on harmful plants (Tables B); assay type: in vivo, Digitaria sanguinalis; details: application rate 1280 g/ha; Table B12a
Outline: as §1

VERPE [7] = experiment: as above; assay type: in vivo, Veronica persica
Outline: as §1

AMARE [8] = experiment: A. Herbicidal pre-emergence action on harmful plants (Tables A); assay type: in vivo, Amaranthus retroflexus
Outline: as §2

ALOMY = experiment: as above; assay type: in vivo, Alopecurus myosuroides
Outline: as §2

VERPE [9] = experiment: as above; assay type: in vivo, Veronica persica; details: application rate 1280 g/ha; Table A11
Excerpt: Seeds of mono- and dicotyledonous weed plants were sown in plastic pots (double sowings with one species of mono- and one species of dicotyledonous weed plants per pot), in sandy loam, and covered with soil. The compounds according to the invention, formulated in the form of wettable powders (WP) or as emulsifiable concentrates (EC), were applied to the surface of the covering soil as aqueous suspension or emulsion, with the addition of 0.5% of an additive, at an application rate of 6001 of water per hectare (converted). Following treatment, the pots were placed in a greenhouse and kept under optimum growth conditions for the test plants. The visual grading of the damage to the test plants was carried out after ca. 3 weeks in comparison to untreated controls (herbicidal effect in percent (%): 100% effect = plants have died off, 0% effect = as control plants). Tables A1 to A12, below, show the effects of selected compounds of the general formula (I) according to table 1 on various harmful plants and an application rate corresponding to 1280 g/ha or below obtained by the experimental procedure mentioned above. Table A1: pre-emergence activity at 1280g/ha against ABUTH in %

ECHCG [10] = experiment: as above; assay type: in vivo, Echinochloa crus-galli; details: visual grading after ca. 3 weeks vs untreated controls, 100% = plants have died off, 0% = as control plants
Outline: as §2

POAAN [11] = experiment: as above; assay type: in vivo, Poa annua
Outline: as §2

SETVI [12] = experiment: as above; assay type: in vivo, Setaria viridis; details: visual grading after ca. 3 weeks vs untreated controls, 100% = plants have died off, 0% = as control plants
Outline: as §2

STEME [13] = experiment: B. Herbicidal post-emergence action on harmful plants (Tables B); assay type: in vivo, Stellaria media; details: application rate 1280 g/ha; Table B6
Outline: as §1

DIGSA [14] = experiment: A. Herbicidal pre-emergence action on harmful plants (Tables A); assay type: in vivo, Digitaria sanguinalis
Outline: as §2

ABUTH = experiment: B. Herbicidal post-emergence action on harmful plants (Tables B); assay type: in vivo, Abutilon theophrasti; details: application rate 1280 g/ha; Table B1a
Outline: as §1

ECHCG [15] = experiment: as above; assay type: in vivo, Echinochloa crus-galli
Outline: as §1

LOLRI [16] = experiment: as above; assay type: in vivo, Lolium rigidum; details: application rate 1280 g/ha; Table B3
Protocol: as §3

SETVI [17] = experiment: as above; assay type: in vivo, Setaria viridis; details: application rate 1280 g/ha; Table B5
Outline: as §1

STEME [18] = experiment: A. Herbicidal pre-emergence action on harmful plants (Tables A); assay type: in vivo, Stellaria media; details: visual grading after ca. 3 weeks vs untreated controls, 100% = plants have died off, 0% = as control plants
Outline: as §2

KCHSC = experiment: B. Herbicidal post-emergence action on harmful plants (Tables B); assay type: in vivo, Kochia scoparia
Protocol: as §3

[19] = application rate 1280 g/ha, Table B7a
[20] = application rate 1280 g/ha, visual grading after ca. 3 weeks vs untreated controls, 100% = plants have died off, 0% = as control plants
[21] = application rate 1280 g/ha, Table A9a
[22] = application rate 80 g/ha, Table A7c
[23] = application rate 320 g/ha, Table A7b
[24] = application rate 320 g/ha, Table A12b
[25] = application rate 1280 g/ha, Table A12a
[26] = application rate 1280 g/ha, Table B10a

COCc1nn(C)cc1C(=O)N1CCCC1Cc1ccc(F)cc1F (single isomer, unassigned) [Example I-079]
100%: pre-emergence activity against LOLRI (LOLRI [5]; application rate 320 g/ha) | pre-emergence activity against LOLRI (LOLRI [5]; application rate 1280 g/ha) | pre-emergence activity against POAAN (POAAN [11]; [22]) | pre-emergence activity against POAAN (POAAN [11]; [23]) | pre-emergence activity against POAAN (POAAN [11]; [20])
90%: post-emergence activity against MATIN (MATIN [1]) | post-emergence activity against POAAN (POAAN [2]; application rate 80 g/ha, Table B7c) | post-emergence activity against POAAN (POAAN [2]; application rate 320 g/ha, Table B7b) | post-emergence activity against POAAN (POAAN [2]; [19]) | pre-emergence activity against MATIN (MATIN [3]; application rate 80 g/ha) | pre-emergence activity against MATIN (MATIN [3]; application rate 320 g/ha) | pre-emergence activity against MATIN (MATIN [3]; application rate 1280 g/ha) | post-emergence activity against AMARE (AMARE [4]) | pre-emergence activity against LOLRI (LOLRI [5]; application rate 80 g/ha) | post-emergence activity against DIGSA (DIGSA [6]) | post-emergence activity against VERPE (VERPE [7]; application rate 320 g/ha, Table B11b) | post-emergence activity against VERPE (VERPE [7]; application rate 1280 g/ha, Table B11a) | pre-emergence activity against AMARE (AMARE [8]; application rate 320 g/ha, Table A8b) | pre-emergence activity against AMARE (AMARE [8]; [20]) | pre-emergence activity against ALOMY (ALOMY; application rate 320 g/ha, Table A9b) | pre-emergence activity against ALOMY (ALOMY; [21]) | pre-emergence activity against VERPE (VERPE [9]) | pre-emergence activity against ECHCG (ECHCG [10]; application rate 80 g/ha) | pre-emergence activity against ECHCG (ECHCG [10]; application rate 320 g/ha) | pre-emergence activity against ECHCG (ECHCG [10]; application rate 1280 g/ha) | pre-emergence activity against SETVI (SETVI [12]; application rate 80 g/ha) | pre-emergence activity against SETVI (SETVI [12]; application rate 320 g/ha) | pre-emergence activity against SETVI (SETVI [12]; application rate 1280 g/ha) | post-emergence activity against STEME (STEME [13]) | pre-emergence activity against DIGSA (DIGSA [14]; application rate 80 g/ha, Table A12c) | pre-emergence activity against DIGSA (DIGSA [14]; [24]) | pre-emergence activity against DIGSA (DIGSA [14]; [25]) | post-emergence activity against ABUTH (ABUTH) | post-emergence activity against ECHCG (ECHCG [15]; application rate 320 g/ha, Table B2b) | post-emergence activity against ECHCG (ECHCG [15]; application rate 1280 g/ha, Table B2a) | post-emergence activity against LOLRI (LOLRI [16]) | post-emergence activity against SETVI (SETVI [17]) | pre-emergence activity against STEME (STEME [18]; application rate 80 g/ha) | pre-emergence activity against STEME (STEME [18]; application rate 320 g/ha) | pre-emergence activity against STEME (STEME [18]; application rate 1280 g/ha)

CC(C)COCc1nn(C)cc1C(=O)N1CCCC1Cc1cc(F)ccc1F (racemic) [Example I-009]
90%: post-emergence activity against MATIN (MATIN [1]) | post-emergence activity against AMARE (AMARE [4]) | pre-emergence activity against DIGSA (DIGSA [14]; [25])
100%: post-emergence activity against DIGSA (DIGSA [6]) | pre-emergence activity against AMARE (AMARE [8]; [20]) | pre-emergence activity against ECHCG (ECHCG [10]; application rate 1280 g/ha) | pre-emergence activity against POAAN (POAAN [11]; [20]) | pre-emergence activity against SETVI (SETVI [12]; application rate 1280 g/ha) | post-emergence activity against KCHSC (KCHSC; application rate 320 g/ha, Table B10b) | post-emergence activity against KCHSC (KCHSC; [26])

Cn1ncc(C(=O)N2CCCC2Cc2ccccc2F)c1COCC(F)(F)F (racemic) [Example I-163]
90%: pre-emergence activity against ECHCG (ECHCG [10]; application rate 1280 g/ha) | pre-emergence activity against DIGSA (DIGSA [14]; [25]) | post-emergence activity against KCHSC (KCHSC; [26]) | pre-emergence activity against STEME (STEME [18]; application rate 1280 g/ha)
100%: post-emergence activity against POAAN (POAAN [2]; [19]) | pre-emergence activity against ALOMY (ALOMY; [21]) | pre-emergence activity against VERPE (VERPE [9]) | pre-emergence activity against POAAN (POAAN [11]; [20])

COCc1c(C(=O)N2CCCC2Cc2ccccc2F)cnn1C (racemic) [Example I-171]
100%: pre-emergence activity against MATIN (MATIN [3]; application rate 1280 g/ha) | pre-emergence activity against LOLRI (LOLRI [5]; application rate 1280 g/ha) | pre-emergence activity against ECHCG (ECHCG [10]; application rate 1280 g/ha) | pre-emergence activity against POAAN (POAAN [11]; [23]) | pre-emergence activity against POAAN (POAAN [11]; [20]) | pre-emergence activity against SETVI (SETVI [12]; application rate 1280 g/ha) | pre-emergence activity against DIGSA (DIGSA [14]; [25])
90%: pre-emergence activity against LOLRI (LOLRI [5]; application rate 320 g/ha) | pre-emergence activity against ECHCG (ECHCG [10]; application rate 320 g/ha) | pre-emergence activity against POAAN (POAAN [11]; [22]) | pre-emergence activity against SETVI (SETVI [12]; application rate 320 g/ha) | pre-emergence activity against DIGSA (DIGSA [14]; [24]) | post-emergence activity against KCHSC (KCHSC; [26]) | pre-emergence activity against STEME (STEME [18]; application rate 1280 g/ha)
